The record followed here is patent US11572590B2, “Methods for evaluating tumor cell spheroids using 3D microfluidic cell culture device” (Dana-Farber Cancer Institute, Inc., priority 2017, dated 2023).

Like-named read-outs stand apart in the source and are kept apart here.

Holding throughout (assay): SelectScreen Kinase Profiling, single point inhibition and IC50 for off-target kinases
Format in all cases: biochemical

For experiment [1], the target named is T1, off-target kinases (Homo sapiens, UniProt Q96L34).
T1 sequence (Q96L34 1-752): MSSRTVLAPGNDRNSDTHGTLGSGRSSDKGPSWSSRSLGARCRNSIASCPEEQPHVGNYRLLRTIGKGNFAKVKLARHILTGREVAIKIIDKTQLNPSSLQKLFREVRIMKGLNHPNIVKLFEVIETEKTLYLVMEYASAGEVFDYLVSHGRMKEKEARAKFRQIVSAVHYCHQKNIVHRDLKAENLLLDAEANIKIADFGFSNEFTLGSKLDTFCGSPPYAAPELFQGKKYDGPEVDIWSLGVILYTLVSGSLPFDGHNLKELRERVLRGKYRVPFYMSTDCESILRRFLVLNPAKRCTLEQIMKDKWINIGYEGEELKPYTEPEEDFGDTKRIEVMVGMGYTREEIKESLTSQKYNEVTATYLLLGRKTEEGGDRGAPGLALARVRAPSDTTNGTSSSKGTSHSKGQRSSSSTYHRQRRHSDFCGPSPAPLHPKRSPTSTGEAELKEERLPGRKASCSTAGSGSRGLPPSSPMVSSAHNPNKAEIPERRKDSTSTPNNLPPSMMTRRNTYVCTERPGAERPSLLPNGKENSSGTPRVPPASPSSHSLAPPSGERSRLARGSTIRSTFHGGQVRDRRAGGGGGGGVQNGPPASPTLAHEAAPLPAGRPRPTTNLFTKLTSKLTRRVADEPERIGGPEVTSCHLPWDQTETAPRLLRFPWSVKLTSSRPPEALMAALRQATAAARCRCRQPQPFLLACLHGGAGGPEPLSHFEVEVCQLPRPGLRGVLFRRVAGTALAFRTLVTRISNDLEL
The following applies: MARK4, ATP Km app, ZLYTE.

In experiment [2] the target is off-target kinases (Homo sapiens, UniProt Q86UX6).
Experiment [3] concerns the target T2, off-target kinases (Homo sapiens, UniProt Q13976).
T2 sequence (Q13976 1-671): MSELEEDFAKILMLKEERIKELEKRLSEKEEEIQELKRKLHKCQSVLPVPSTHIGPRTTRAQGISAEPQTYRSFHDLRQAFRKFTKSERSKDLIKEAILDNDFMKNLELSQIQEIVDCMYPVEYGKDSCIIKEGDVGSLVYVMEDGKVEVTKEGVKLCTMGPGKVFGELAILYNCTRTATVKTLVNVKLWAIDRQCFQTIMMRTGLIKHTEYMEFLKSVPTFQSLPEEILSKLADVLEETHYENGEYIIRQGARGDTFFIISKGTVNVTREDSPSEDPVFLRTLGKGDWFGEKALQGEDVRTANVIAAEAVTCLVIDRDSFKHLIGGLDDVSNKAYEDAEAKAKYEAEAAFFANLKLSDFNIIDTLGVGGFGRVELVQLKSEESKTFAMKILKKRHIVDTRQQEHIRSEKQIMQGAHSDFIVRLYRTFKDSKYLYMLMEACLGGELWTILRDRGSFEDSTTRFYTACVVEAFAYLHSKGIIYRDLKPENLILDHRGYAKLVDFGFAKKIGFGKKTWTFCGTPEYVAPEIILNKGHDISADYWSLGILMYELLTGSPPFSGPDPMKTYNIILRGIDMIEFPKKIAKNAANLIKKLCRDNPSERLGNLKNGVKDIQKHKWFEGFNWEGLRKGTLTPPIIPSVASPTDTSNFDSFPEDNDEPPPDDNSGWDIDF
The following applies: PRKG1, ZLYTE, ATP Km app.

Chain of off-target kinases (Homo sapiens, UniProt Q86UX6) (Q86UX6 whole entry): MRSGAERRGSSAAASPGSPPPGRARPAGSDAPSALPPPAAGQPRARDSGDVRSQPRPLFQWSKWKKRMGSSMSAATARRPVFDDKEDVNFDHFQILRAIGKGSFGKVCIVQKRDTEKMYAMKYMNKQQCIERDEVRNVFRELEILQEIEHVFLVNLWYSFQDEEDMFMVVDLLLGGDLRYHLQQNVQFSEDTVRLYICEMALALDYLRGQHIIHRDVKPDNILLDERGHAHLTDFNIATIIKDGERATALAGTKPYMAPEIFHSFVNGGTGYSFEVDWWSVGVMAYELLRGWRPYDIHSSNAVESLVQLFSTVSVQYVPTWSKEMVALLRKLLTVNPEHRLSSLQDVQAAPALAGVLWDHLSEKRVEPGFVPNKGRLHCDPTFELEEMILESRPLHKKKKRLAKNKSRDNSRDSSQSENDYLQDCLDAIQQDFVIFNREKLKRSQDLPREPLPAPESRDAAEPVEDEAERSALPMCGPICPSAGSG

The term inhibition denotes the relative decrease from the control value, in per cent. As to `N#Cc1cc(-c2ncnc(Nc3ccc(N4CCN(C5COC5)CC4)cc3)n2)ccc1OC1CCOCC1` [Compound 1, 5-(4-((4-(4-(oxetan-3-yl)piperazin-1-yl)phenyl)amino)-1,3,5-triazin-2-yl)-2-((tetrahydro-2H-pyran-4-yl)oxy)benzonitrile], the inhibition was 96% in experiment [1] (read-out: % Inhibition 1); 93% in experiment [1] (read-out: % Inhibition 2); 95% in experiment [1] (read-out: % Inhibition Avg); -4% in experiment [2] (STK32C (YANK3), LanthaScreen Binding, read-out: % Inhibition 1); 3% in experiment [2] (STK32C (YANK3), LanthaScreen Binding, read-out: % Inhibition 2); -1% in experiment [2] (read-out: % Inhibition Avg). In addition, the inhibition in experiment [3] (read-out: % Inhibition 1) came to 2%; in experiment [3] (read-out: % Inhibition 2) it was 5%; in experiment [3] (read-out: % Inhibition Avg), 3%.
